In US20240226094A1, “ALPHA PROTEIN KINASE 1 INHIBITORS FOR USE IN TREATING KAWASAKI DISEASE” (Shanghai Yao Yuan Biotechnology Co., Ltd., priority 2021, published 2024):
Where a name gives a salt, the structure may show the parent alone. Read-outs that look alike come from different tables or passages of the source.

Assays:
[1] = target: ALPK1 (Homo sapiens (Human), UniProt Q96QP1); experiment: ALPK1 in vitro kinase assay (HTRF of TIFA phosphorylation); type: biochemical
Protocol: ALPK1 kinase activity was measured in an in vitro assay using ADP-Heptose as the ALPK1 ligand and activator of its kinase activity and TIFA protein as the ALPK1 phosphorylation substrate. Since phosphorylated TIFA proteins oligomerize, Homogeneous Time-Resolved Fluorescence (HTRF) was used to measure protein:protein interaction between HA-tagged TIFA proteins as an indicator of TIFA phosphorylation.
In brief, dose-response studies were performed with HEK293 cells cultured in Dulbecco's Modified Eagle Medium (DMEM) supplemented 10% fetal bovine serum (FBS, Hyclone™) containing antibiotics (pen/strep, G418) in 384-well assay plates. Each well contained 0.1 mg TIFA, ALPK1 (2 nM final concentration in reaction mixture) and kinase buffer (100 mM of HEPES pH 7.4, 4 mM DTT, 40 mM MgCl2, 20 mM of β-Glycerol phosphate disodium salt, 0.4 mM of Na3VO4, 0.16 mg/mL). Titrations of the test compounds were prepared in dimethylsulphoxide (DMSO). The reaction was initiated by addition of ATP and ADP-Heptose.
For HTRF, samples were incubated with a Tb cryptate-labeled anti-HA antibody for capturing HA-tagged proteins according to the manufacturer's instructions (PerkinElmer™, CisBio™) and the fluorescence signal was quantified (Tecan Infinite F NANO+). HTRF signals were calculated as the HTRF ratio (ratio of fluorescence measured at 665 nm and 620 nm)×104 (thereby using the signal at 620 nm as an internal standard).
IC50 values were determined using 3- or 4-parameter logistic equation using GraphPad Prism version 6.00. The reference compound, A027, was used as a positive control for each plate.

[2] = tested on: ALPK1-dependent NFκB reporter gene activation; experiment: NFκB gene reporter alkaline phosphatase assay in HEK293 G9 cells; type: cell-based, human; settings: read-out: NFkB assay IC50
Protocol: An alkaline phosphatase reporter assay system was used to measure inhibition of ALPK1-dependent NFκB reporter gene activation. Briefly, HEK293 cells stably expressing an NF-kB reporter (referred to herein as “G9 cells”) were maintained in DMEM as described above. For the assay, cells were seeded into 96-well plates at a density of 10,000 cells/well in Freestyle-M 293 Expression Medium (ThermoFisher), and allowed to attach overnight. […] NFkB gene activation was detected using the chromogenic substrate, para-nitrophenyl phosphate (pNPP) according to the manufacturer's protocols (pNPP Phosphatase Assay, Beyotine Biotechnology).

[3] = tested on: ALPK1-dependent innate immunity gene expression in PBMC; experiment: Inhibition of ALPK1 in PBMC cells (innate immunity gene mRNA, RT-PCR); type: in vivo, Sprague-Dawley (SD) rats; settings: SD rats, 10 mpk oral, 2 h before ip ALPK1 agonist, blood 3 h later, compared with vehicle group
Protocol: We examined whether ALPK1 inhibitors can suppress ALPK1-dependent activation of a set of such genes in rats. […] PBMCs were collected and gene expression analyzed, as described in more detail below.
After 3 hours administration of the ALPK1 agonist, the blood was collected from heart, and PBMC were extracted from each group.

[4] = tested on: ALPK1-TIFA-IL1β pathway in THP-1-derived macrophage cells; experiment: PMA-differentiated THP-1 cell based assay (IL1β mRNA after ALPK1 agonist); settings: Homo sapiens; PMA-differentiated THP-1 cells, 2 h pretreatment, 4 h ALPK1 agonist; read-out: IC50 of IL1β mRNA induced by ALPK1 activation
Protocol: Peripheral blood mononuclear cells (PBMCs) from Kawasaki patients show activation of ALPK1-TIFA-IL1β pathway. […] THP-1 cells were cultured in RPMI 1640 containing 10% heat inactivated FBS, penicillin (100 units/ml) and streptomycin ([…]), and maintained in a humidified incubator with 95% atmospheric air and 5% CO2. Prior to the experiment, THP-1 cells were seeded into 24-well flat-bottom plate at a cell density of […]. Phorbol myristate acetate (PMA; 50 ng/mil) was used to treat THP-i cells for 48 h, and then THP-1-derived macrophages were obtained. […] Total RNA was extracted using the TRIzol method and reverse-transcribed. The mRNA expression levels IL1β were detected by SYBR green gene expression assays. Expression levels of mRNA were normalized to GAPDH. Relative expression was calculated by comparing to vehicle control and the values were plotted as fold induction. All activity results were expressed as the mean of triplicate determinations.

[5] = tested on: ALPK1-dependent innate immunity gene expression; experiment: Inhibition of ALPK1 in coronary artery, aorta and heart muscle (innate immunity gene mRNA, RT-PCR); type: in vivo, Sprague-Dawley (SD) rats; settings: SD rats, 40 mpk oral, 2 h before ip ALPK1 agonist, tissue 3 h later, compared with vehicle group
[6] = ADP-Heptose activated ALPK1, TIFA substrate, HTRF

Chain of ALPK1 (Q96QP1 whole entry): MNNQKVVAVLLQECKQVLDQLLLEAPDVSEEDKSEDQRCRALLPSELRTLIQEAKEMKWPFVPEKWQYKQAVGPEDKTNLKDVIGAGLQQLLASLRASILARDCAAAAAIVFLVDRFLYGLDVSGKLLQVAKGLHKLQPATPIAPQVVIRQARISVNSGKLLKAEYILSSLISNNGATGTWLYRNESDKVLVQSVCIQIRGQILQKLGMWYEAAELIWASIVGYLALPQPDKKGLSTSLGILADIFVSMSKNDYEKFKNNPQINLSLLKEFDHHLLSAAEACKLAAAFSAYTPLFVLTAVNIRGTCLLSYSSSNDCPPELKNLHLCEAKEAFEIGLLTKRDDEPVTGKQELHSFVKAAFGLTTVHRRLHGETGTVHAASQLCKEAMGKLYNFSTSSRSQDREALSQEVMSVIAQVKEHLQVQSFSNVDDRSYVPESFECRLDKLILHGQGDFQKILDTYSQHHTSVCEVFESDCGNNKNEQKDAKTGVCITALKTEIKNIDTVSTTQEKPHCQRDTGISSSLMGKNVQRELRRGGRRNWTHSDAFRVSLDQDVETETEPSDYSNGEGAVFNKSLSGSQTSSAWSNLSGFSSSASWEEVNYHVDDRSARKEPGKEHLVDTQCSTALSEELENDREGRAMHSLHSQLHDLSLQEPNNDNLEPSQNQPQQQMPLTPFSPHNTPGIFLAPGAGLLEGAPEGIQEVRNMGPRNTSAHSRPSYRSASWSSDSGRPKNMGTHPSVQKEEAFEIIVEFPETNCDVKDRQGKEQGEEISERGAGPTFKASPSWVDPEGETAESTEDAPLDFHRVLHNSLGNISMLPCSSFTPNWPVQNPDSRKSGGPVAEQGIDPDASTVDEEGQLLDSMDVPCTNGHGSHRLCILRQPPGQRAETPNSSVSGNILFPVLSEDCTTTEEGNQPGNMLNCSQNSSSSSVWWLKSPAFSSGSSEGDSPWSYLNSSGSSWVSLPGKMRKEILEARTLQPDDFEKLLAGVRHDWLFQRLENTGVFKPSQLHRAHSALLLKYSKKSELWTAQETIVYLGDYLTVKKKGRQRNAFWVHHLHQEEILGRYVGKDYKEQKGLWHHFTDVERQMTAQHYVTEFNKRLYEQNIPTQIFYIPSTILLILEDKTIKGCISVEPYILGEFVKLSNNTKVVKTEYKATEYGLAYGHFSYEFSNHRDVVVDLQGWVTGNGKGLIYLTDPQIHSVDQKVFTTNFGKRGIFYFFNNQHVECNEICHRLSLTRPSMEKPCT

SMILES: C#C[C@@](C)(c1ccc(F)cc1)c1csc(NC(=O)NCCO)n1 (stereo in doubt) [A283, 1-(4-(2-(4-fluorophenyl)but-3-yn-2-yl)thiazol-2-yl)-3-(2-hydroxyethyl)urea]
- IC50 [1]: 550 nM

SMILES: C#C[C@](C)(c1ccc(Cl)cc1)c1csc(NC(=O)c2ccc(N3CCNCC3)cc2)n1 (stereo in doubt) [B092, N-(4-(2-(4-chlorophenyl)but-3-yn-2-yl)thiazol-2-yl)-4-(piperazin-1-yl)benzamide]
- IC50 [1, 6]: 219 nM

SMILES: C#C[C@@](C)(c1ccc(Cl)cc1)c1csc(NC(=O)c2ccc(N3CCNCC3)cc2)n1 (stereo in doubt) [B093, N-(4-(2-(4-chlorophenyl)but-3-yn-2-yl)thiazol-2-yl)-4-(piperazin-1-yl)benzamide]
- IC50 [1, 6]: 43 nM

SMILES: CC(C)(c1ccc(Br)cc1)c1csc(NC(=O)NCc2cccc(N3CCNCC3)c2)n1 [A005, 1-(4-(2-(4-bromophenyl)propan-2-yl)thiazol-2-yl)-3-(3-(piperazin-1-yl)benzyl)urea]
- IC50 [1]: 97 nM
- IC50 ([2]; Homo sapiens, HEK293): 3150 nM

SMILES: COc1ccc(C(C)(C)c2csc(NC(=O)NCc3cnccn3)n2)cc1 [A007, 1-(4-(2-(4-methoxyphenyl)propan-2-yl)thiazol-2-yl)-3-(pyrazin-2-ylmethyl)urea]
- IC50 [1]: 91 nM
- IC50 ([2]; Homo sapiens, HEK293): 5580 nM

SMILES: COc1ccc(C(C)(C)c2csc(NC(=O)NCCCCNc3ccccc3)n2)cc1 [A147, 1-(4-(2-(4-methoxyphenyl)propan-2-yl)thiazol-2-yl)-3-(4-(phenylamino)butyl)urea]
- IC50 [1]: 235 nM

SMILES: COc1ccc(C(C)(C)c2csc(NC(=O)NCc3cc(F)c(C4CCNCC4)c(F)c3)n2)cc1 [A151, 1-(3,5-difluoro-4-(piperidin-4-yl)benzyl)-3-(4-(2-(4-methoxyphenyl)propan-2-yl)thiazol-2-yl)urea hydrochloride]
- IC50 ([2]; Homo sapiens, HEK293): 950 nM

SMILES: C#C[C@@](C)(c1ccc(Cl)cc1)c1csc(NC(=O)NCCO)n1 [A176, (S)-1-(4-(2-(4-chlorophenyl)but-3-yn-2-yl)thiazol-2-yl)-3-(2-hydroxyethyl)urea]
- mRNA expressions of PBMC CCL-2, CCL-7, CXCL-1, CXCL-10, CXCL-11 and IL-1β [3]: significantly decreased
- IC50 [4]: 97 nM

SMILES: CC(C)(c1ccc(I)cc1)c1csc(NC(=O)NCc2cnc(N3CCNCC3)nc2)n1 [A178, 1-(4-(2-(4-iodophenyl)propan-2-yl)thiazol-2-yl)-3-((2-(piperazin-1-yl)pyrimidin-5-yl)methyl)urea]
- IC50 [1]: 42 nM

SMILES: COc1ccc(C(C)(C)c2csc(NC(=O)NCc3ccc(N4CCC(N)C4)nc3)n2)cc1 (stereo not drawn) [A199, 1-((6-(3-aminopyrrolidin-1-yl)pyridin-3-yl)methyl)-3-(4-(2-(4-methoxyphenyl)propan-2-yl)thiazol-2-yl)urea]
- IC50 ([2]; Homo sapiens, HEK293): 460 nM

SMILES: COc1ccc(C(C)(C)c2csc(NC(=O)NCc3cc(F)c(N4CCNCC4)cc3F)n2)cc1 [A231, 1-(2,5-difluoro-4-(piperazin-1-yl)benzyl)-3-(4-(2-(4-methoxyphenyl)propan-2-yl)thiazol-2-yl)urea hydrochloride]
- IC50 ([2]; Homo sapiens, HEK293): 3360 nM

SMILES: COc1ccc(C(C)(C)c2csc(NC(=O)N3CC(c4ccc(N5CCNCC5)cc4)C3)n2)cc1 [A233, N-(4-(2-(4-methoxyphenyl)propan-2-yl)thiazol-2-yl)-3-(4-(piperazin-1-yl)phenyl)azetidine-1-carboxamide]
- IC50 ([2]; Homo sapiens, HEK293): 330 nM

SMILES: C#CC(C)(c1ccc(OC)cc1)c1csc(NC(=O)NC(C)c2ccc(N3CCNCC3)cc2)n1 (stereo not drawn) [A234, 1-(4-(2-(4-methoxyphenyl)but-3-yn-2-yl)thiazol-2-yl)-3-(1-(4-(piperazin-1-yl)phenyl)ethyl)urea]
- IC50 [1]: 36 nM

SMILES: COc1ccc(C(C)(CO)c2csc(NC(=O)NC(C)c3ccc(N4CCNCC4)cc3)n2)cc1 (stereo not drawn) [A235, 1-(4-(1-hydroxy-2-(4-methoxyphenyl)propan-2-yl)thiazol-2-yl)-3-(1-(4-(piperazin-1-yl)phenyl)ethyl)urea]
- IC50 [1]: 61 nM

SMILES: C#CC(C)(c1ccc(Br)cc1)c1csc(NC(=O)NCCN2CCNCC2)n1 (stereo not drawn) [A239, 1-(4-(2-(4-bromophenyl)but-3-yn-2-yl)thiazol-2-yl)-3-(2-(piperazin-1-yl)ethyl)urea]
- IC50 [1]: 20 nM

SMILES: C#C[C@](C)(c1ccc(OC)cc1)c1csc(NC(=O)N2CC(CO)C2)n1 [A255, (R)-3-(hydroxymethyl)-N-(4-(2-(4-methoxyphenyl)but-3-yn-2-yl)thiazol-2-yl)azetidine-1-carboxamide]
- IC50 [1]: 109 nM

SMILES: C#C[C@@](C)(c1ccc(OC)cc1)c1csc(NC(=O)N2CC(CO)C2)n1 [A256, (S)-3-(hydroxymethyl)-N-(4-(2-(4-methoxyphenyl)but-3-yn-2-yl)thiazol-2-yl)azetidine-1-carboxamide]
- IC50 [1]: 43 nM

SMILES: C#C[C@](C)(c1ccc(Cl)cc1)c1csc(NC(=O)N2CC(CO)C2)n1 [A257, (R)-N-(4-(2-(4-chlorophenyl)but-3-yn-2-yl)thiazol-2-yl)-3-(hydroxymethyl)azetidine-1-carboxamide]
- IC50 [1]: 246 nM

SMILES: C#C[C@@](C)(c1ccc(Cl)cc1)c1csc(NC(=O)N2CC(CO)C2)n1 [A258, (S)-N-(4-(2-(4-chlorophenyl)but-3-yn-2-yl)thiazol-2-yl)-3-(hydroxymethyl)azetidine-1-carboxamide]
- IC50 [1]: 57 nM

SMILES: C#CC(C)(c1ccc(Cl)cc1)c1csc(NC(=O)N2CCc3cc(N4CCNCC4)ccc3C2)n1 (stereo not drawn) [A281]
- IC50 [2]: 860 nM

SMILES: C#CC(C)(c1ccc(Cl)cc1)c1csc(NC(=O)c2ccc(N3CCNCC3)cc2F)n1 (stereo not drawn) [B065, N-(4-(2-(4-chlorophenyl)but-3-yn-2-yl)thiazol-2-yl)-2-fluoro-4-(piperazin-1-yl)benzamide]
- IC50 [1, 6]: 34 nM

SMILES: C#CC(C)(c1ccc(Cl)cc1)c1csc(NC(=O)c2ccc(N3CCNCC3)c(OC)c2)n1 (stereo not drawn) [B066, N-(4-(2-(4-chlorophenyl)but-3-yn-2-yl)thiazol-2-yl)-3-methoxy-4-(piperazin-1-yl)benzamide]
- IC50 [1, 6]: 29 nM

SMILES: C#C[C@@](C)(c1ccc(Cl)cc1)c1csc(NC(=O)c2c(F)cc(N3CCNCC3)cc2F)n1 [C008, (S)-N-(4-(2-(4-chlorophenyl)but-3-yn-2-yl)thiazol-2-yl)-2,6-difluoro-4-(piperazin-1-yl)benzamide]
- mRNA expressions of PBMC CCL-7, CXCL-1, CXCL-10, CXCL-11, IL-1β, TNF-α and IL-6 [3]: significantly decreased
- IC50 [4]: 15 nM
- mRNA expression of aorta IL-6, CXCL-1, CXCL-10, CCL-2 [5]: significantly decreased
- mRNA expression of cardiac muscle TNF-a, IL-1b, IL-6, CXCL-1, CXCL-10, CXCL-11, CCL-2 and CCL-5 [5]: significantly decreased
- mRNA expression of coronary artery TNF-α, CXCL-1, CCL-2 and CCL-7 [5]: significantly decreased
